Ends that are not written are not given here. Peptide text beside a SMILES is read from it. * marks the point of attachment. Cbz = O=C(OCc1ccccc1)*
How the values were obtained:
[1] = test system: CAPNS1 protein in HEK293T cells ectopically expressing WFS2; test: CAPNS1 protein level after proteasome inhibition; type: cell-based; settings: 2 μM
Experimental: To find out whether WFS2 regulates CAPNS1 stability through the ubiquitin-proteasome pathway, HEK293T cells ectopically expressing WFS2 were treated with a proteasome inhibitor, MG132 (2 μM), and then the CAPNS1 protein level was measured.

INS-1 823/13 cells = test: Small-scale screen for prevention of thapsigargin mediated cell death, caspase 3/7-Glo luminescence; type: cell-based, rat; settings: pretreated 24 hours, then 2 nM thapsigargin overnight
Experimental: INS-1 823/13 cells were pretreated with DMSO or drugs for 24 hours the incubated in media containing 2 nM of thapsigargin (TG) overnight. Apoptosis was detected by caspase 3/7-Glo luminescence. […] These eight compounds were PARP Inhibitor, dantrolene sodium, NS398, rapamycin, pioglitazone, calpain inhibitor III, docosahexaenoic acid (DHA), and GLP-1 (FIG. 8A).

[2] = test system: Neuro2a cells transfected with siRNA against WFS2; test: WFS2-knockdown mediated cell death, cleaved caspase 3 immunoblotting and Annexin V staining; type: cell-based, mouse; settings: neuronal cell line; 100 μM for 12 hours, 36 hours post-transfection
Experimental: Flow cytometry analyses (FACS) were performed with LSRII Flow Cytometer (BD Biosciences, San Jose, Calif.) at the FACS core facility of Washington University School of Medicine Neural progenitor cells or NSC34 cells were plated in 24-well plates. After staining with Annexin V, cells were washed and resuspended in PBS. Cells were run using standard protocols, specifically Annexin V positive cell (i.e., apoptotic cells). The results were analyzed by FlowJo ver.7.6.3 (Ashland, Oreg.).
(§1) Neuro2a and MIN6 cells were transfected with siRNA against WFS2 or a control scrambled siRNA (Cont.). After 36 hours post-transfection, cells were untreated or treated with 100 μM calpeptin for 12 hours. Cleaved caspase 3 and actin levels were assessed by immunoblotting (FIG. 5A, left panel). Quantified levels of cleaved caspase-3 are shown in FIG. 5A, right panel (n=3, *P<0.05). Additionally, early stage apoptosis was monitored by Annexin V staining followed by flow cytometry, FIG. 5C. INS-1 832/13 cells were transfected with scrambled siRNA and WFS2 siRNA. After 24 hours post-transfection, cells were untreated or treated with 5 μM calpeptin for 24 hours. Cleaved caspase-3, WFS2, and actin levels were monitored by immunoblotting (FIG. 5D, left panel) and quantified (FIG. 5D, right panel) (n=3, *P<0.05).

[3] = test system: INS-1 832/13 cells transfected with WFS2 siRNA; test: WFS2-knockdown mediated cell death, cleaved caspase-3 immunoblotting; type: cell-based, rat; settings: β cell line; 5 μM for 24 hours, 24 hours post-transfection
Experimental: as §1

[4] = test system: MIN6 cells transfected with siRNA against WFS2; test: WFS2-knockdown mediated cell death, cleaved caspase 3 immunoblotting; type: cell-based, rodent; settings: β cell line; 100 μM for 12 hours, 36 hours post-transfection
Experimental: as §1

[5] = test system: neural progenitor cells derived from iPS cells of a Wolfram syndrome subject; test: Thapsigargin-induced cell death in patient neural progenitor cells, cleaved caspase-3 immunoblotting; settings: pretreated 10 μM for 48 hours, then 0.125 μM thapsigargin for 20 hours
Description: To generate iPS cells, fibroblasts were obtained from non-affected controls and subjects with Wolfram syndrome. […] To generate neural progenitor cells, iPSCs were counted and plated ˜50,000 per well in a 96-well plate to form uniform embryoid bodies. After 5 days, embryoid bodies were suspended in neural induction media and replated as adherent cultures. Fresh media was applied every day for 7 days. Neural rosettes formed in these cultures were selected and plated. Plated rosettes were fed with neural induction media every day for 4-7 days to obtain neural progenitor cells.
Wolfram patient neural progenitor cells were pretreated with or without 10 μM dantrolene for 48 hours.

[6] = test system: WFS1-knockdown NSC34 cells; test: Protection of WFS1-knockdown cells, immunoblotting of cleaved caspase-3 and cleaved spectrin; type: cell-based; settings: 10 μM for 24 hours
Experimental: NSC34 cells were transfected with scrambled siRNA or siRNA directed against WFS1, then untreated or treated with 10 μM dantrolene for 24 hours.

INS1E cells = test: ER stress- and cytokine-induced β cell death, caspase 3/7 activity assay; settings: 100 nM
Description: A Caspase 3/7 assay (Promega, Madison, Wis.) was utilized to measure caspase-3 and -7 activities in various cell lines. The assay provides a proluminescent caspase-3/7 substrate, which contains the tetrapeptide sequence DEVD. This caspase-3/7 substrate can be added directly to cell lysates. The substrate is cleaved to release a aminoluciferin, which is a substrate for luciferase used in the production of light. The signal is proportional to caspase-3/7 activity.

NSC34 cells = test: Cytoplasmic calcium levels by Fura-2 calcium indicator; type: cell-based; settings: 10 μM for 24 hours
Experimental: (§2) First, the question of whether dantrolene could decrease cytoplasmic calcium levels was tested. […] and NSC34 cells were untreated or treated with 10 μM dantrolene for 24 hours. Cytoplasmic calcium levels were measured by Fura-2 calcium indicator over a period of 5 minutes. Thapsigargin (1 μM) was added at time 0. […] Next, it was necessary to determine if dantrolene could restore cytosolic calcium levels in WFS1-deficient cells.

[7] = test system: WFS1 silenced INS-1 832/13 cells; test: Protection of WFS1 silenced cells, immunoblotting of cleaved caspase-3 and cleaved spectrin; type: cell-based, rat; settings: 10 μM for 48 hours
Experimental: In order to determine whether dantrolene conferred protection in WFS1 deficient cells and WFS1 silenced INS-1 832/13 cells were treated with dantrolene. INS-1 832/13 cells were transfected with scrambled siRNA or siRNA directed against WFS1. Cells were untreated or treated with 10 μM dantrolene for 48 hours, then incubated in media containing 0.5 μM thapsigargin for 6 hours. Expression levels of cleaved caspase-3 under untreated and thapsigargin treated conditions (FIG. 9A, left panel) were quantified and shown in FIG. 9A, center and right panels (n=3, *P<0.05). Protein levels of cleaved spectrin, WFS1, and GAPDH were analyzed by immunoblotting (FIG. 9B, left panel) and quantified (FIG. 9B, right panel) (n=3, *P<0.05). […]

[8] = test system: NSC34 cells transfected with WFS2 siRNA; test: Cell death mediated by WFS2 knockdown, cleaved caspase-3 immunoblotting; type: cell-based; settings: 10 μM for 24 hours, 24 hours post transfection
Experimental: (§3) In to determine if danotrolene affects ER calcium homeostasis, cells were treated with ryanodine or dantrolene. INS-1 832/13 cells were transfected with scrambled siRNA or WRFS1 siRNA. After 24 hours post-transfection, cells were untreated or treated with 2 μM ryanodine for 24 hours. Cleaved caspase-3, WFS1, and GAPDH levels were monitored by immunoblotting (FIG. 10A, left panel) and quantified ([…], right panel). INS-1 832/13 cells (FIG. 10B) and NSC34 cells (FIG. 10C) were transfected with scrambled siRNA or WRFS2 siRNA. After 24 hours post transfection, cells were untreated or treated with 10 μM dantrolene for 24 hours. Cleaved caspase-3, WFS2, and GAPDH levels were monitored by immunoblotting.

[9] = test system: ER-localized ryanodine receptors; settings: previous studies; cited from earlier work
INS-1 832/13 cells = test: Cytoplasmic calcium levels by Fura-2 calcium indicator; type: cell-based, rat; settings: 10 μM for 24 hours
Experimental: as §2

[10] = test system: INS-1 832/13 cells transfected with WFS2 siRNA; test: Cell death mediated by WFS2 knockdown, cleaved caspase-3 immunoblotting; type: cell-based, rat; settings: 10 μM for 24 hours, 24 hours post transfection
Experimental: as §3

[11] = cited from earlier work
[12] = test system: INS-1 832/13 cells expressing D1ER; test: ER calcium monitoring with D1ER (FRET/CFP ratio, FACS); type: cell-based, rat; settings: various concentrations, dose-dependent manner
Description: A β cell line was developed to monitor ER calcium levels under various conditions. The ER-localized calcium sensor D1ER was modified to contain two fluorescent proteins, CFP and YFP, which were inserted onto the N- and C-terminus, respectively. INS-1 832/13 cells were transfected with the modified D1ER calcium sensor. When Ca^2+ binds to the calmodulin, an intramolecular rearrangement occurs and brings CFP and YFP into close proximity resulting in a fluorescence resonance energy transfer (FRET) from CFP to YFP. The FRET signal allows ratiometric measurements of free ER Ca^2+ and changes in Ca^2+ using FRET/CFP ratio.
INS-1 832/13 cells that stably express D1ER were treated with digitonin and ethylene glycol tetraacetic acid (EGTA) which causes the minimum value of FRET/CFP ratio, FIG. 10F. Additionally, cells treated with digitonin and CaCl2 led to the maximum value of FRET/CFP ratio, FIG. 10F.
FRET/CFP ratio was decreased in INS-1 832/13 cells treated with thapsigargin in a dose-dependent manner (FIG. 10G). Additionally, the rates of ER calcium-depleted cells increased in cells treated with thapsigargin in a dose-dependent manner (FIG. 10G).

[13] = test system: ER stress-mediated cell death; settings: have been shown (references); cited from earlier work
[14] = thapsigargin 1 μM added at time 0, Fura-2 over 5 minutes

CC(C)C[C@@H](C=O)NC(=O)[C@H](CC(C)C)NC(=O)[C@H](CC(C)C)NC(=O)OCc1ccccc1 [MG132] (Cbz-Leu-Leu-Leu-aldehyde)
CAPNS1 protein level [1]: stabilized CAPNS1 protein

CS(=O)(=O)Nc1ccc([N+](=O)[O-])cc1OC1CCCCC1 [NS398]
suppression of thapsigargin mediated cell death (apoptosis by caspase 3/7-Glo luminescence) (INS-1 823/13 cells; 10 μM (Table 3)): significantly suppress thapsigargin mediated cell death

CC(C)[C@H](NC(=O)OCc1ccccc1)C(=O)N[C@H](C=O)Cc1ccccc1 [calpain inhibitor III] (Cbz-Val-Phe-aldehyde)
suppression of thapsigargin mediated cell death (apoptosis by caspase 3/7-Glo luminescence) (INS-1 823/13 cells; 1 μM (Table 3)): significantly suppress thapsigargin mediated cell death

CCCC[C@@H](C=O)NC(=O)[C@H](CC(C)C)NC(=O)OCc1ccccc1 [calpeptin]
WFS2-knockdown mediated cell death [2]: prevented WFS2-knockdown mediated cell death | WFS2-knockdown mediated cell death [3]: prevented WFS2-knockdown mediated cell death | WFS2-knockdown mediated cell death [4]: prevented WFS2-knockdown mediated cell death

O=C1CN(/N=C/c2ccc(-c3ccc([N+](=O)[O-])cc3)o2)C(O)=N1 [dantrolene, 1-[[5-(4-nitrophenyl)-2-furyl]methylideneamino]imidazolidine-2,4-dione]
thapsigargin-induced cell death (cleaved caspase-3) [5]: could prevent cell death | calpain activation (cleaved spectrin) [6]: prevented calpain activation | cell death (cleaved caspase-3) [6]: prevented calpain activation and cell death | cytokine induced β cell death (INS1E cells; inflammatory cytokine 50 ng/mL): prevented | thapsigargin-induced β cell death (INS1E cells; thapsigargin 10 nM for 24 hours): prevented | cytosolic calcium levels (NSC34 cells; [14]): decreased cytosolic calcium levels | cytosolic calcium levels in WFS1-knockdown cells (NSC34 cells; WFS1-knockdown NSC34 cells): restored cytosolic calcium levels | calpain activity (cleaved spectrin) ([7]; then 0.5 μM thapsigargin for 6 hours): suppression of apoptosis and calpain activity | apoptosis (cleaved caspase-3) ([7]; then 0.5 μM thapsigargin for 6 hours or untreated): suppression of apoptosis | cell death mediated by WFS2 knockdown [8]: did not block cell death mediated by WFS2 knockdown | leakage of calcium from the ER to the cytosol [9]: suppresses leakage of calcium from the ER to the cytosol | cytosolic calcium levels (INS-1 832/13 cells; [14]): decreased cytosolic calcium levels | cytosolic calcium levels in WFS1-knockdown cells (INS-1 832/13 cells; WFS1-knockdown INS-1 832/13 cells): restored cytosolic calcium levels | cell death mediated by WFS2 knockdown [10]: did not block cell death mediated by WFS2 knockdown | suppression of thapsigargin mediated cell death (apoptosis by caspase 3/7-Glo luminescence) (INS-1 823/13 cells; 10 μM (Table 3)): significantly suppress thapsigargin mediated cell death | solubility in water [11]: poorly soluble in water

C/C=C(/C)C(=O)O[C@H]1C(C)=C2[C@H]([C@@H]1OC(=O)CCCCCCC)[C@@](C)(OC(C)=O)C[C@H](OC(=O)CCC)[C@@]1(O)[C@H]2OC(=O)[C@@]1(C)O [thapsigargin]
FRET/CFP ratio (ER calcium) [12]: decreased | rates of ER calcium-depleted cells [12]: increased

GLP-1: Glucagon-like peptide-1; FDA approved drug (HAEGTFTSDVSSYLEGQAAKEFIAWLVKGR; ends and bridges not checked; UniProt P01275 98-127, looked up)
suppression of thapsigargin mediated cell death (apoptosis by caspase 3/7-Glo luminescence) (INS-1 823/13 cells; 50 nM (Table 3)): significantly suppress thapsigargin mediated cell death | protection against ER stress-mediated cell death [13]: confer protection against ER stress-mediated cell death

— patent US10695324B2, “Treatment for wolfram syndrome and other endoplasmic reticulum stress disorders” (Washington University, priority 2014, dated 2020)
